Data: BindingDB's records for doi:10.1021/jm801490z (Nantong University, 2021)

How the values were obtained:
[1] = target: T1, Replicase polyprotein 1ab (Severe acute respiratory syndrome coronavirus 2, UniProt P0DTD1); assay: Inhibition of SARS-CoV-2 Main protease (3264 to 3569 residues) expressed in Escherichia coli BL21-Gold (DE3) using Dabcyl-KTSAVLQSGFRKM-E(Edans)-NH2 as substrate by FRET assay
[2] = target: T1, Replicase polyprotein 1ab; assay: Inhibition of SARS-CoV-2 3CL protease expressed in Escherichia coli using Dabcyl-KTSAVLQSGFRKM-E(Edans)-NH2 as substrate preincubated for 30 mins followed by substrate addition and measured after 3 hrs

SMILES | IC50 [1] [nM] | IC50 [2] [nM]
CC(C)(C)OC(=O)Nc1ccn([C@@H](CC2CC2)C(=O)N[C@@H](C[C@@H]2CCNC2=O)C(=O)C(=O)NCc2ccccc2)c(=O)c1 | 670 | –
Cn1nc(-c2ccc(C(F)(F)F)cc2)nc2c(=O)n(C)c(=O)cc1-2 | – | 260
